≈ marks a conversion by molar mass, not a printed value.
Experiments:
[1] = tested on: homogenized annulus tissue; test: Crosslinking of annulus tissue quantified by hydroxyproline release upon collagenase digestion
Experimental: Increasing concentrations of protein crosslinkers were added to homogenized annulus tissue and incubated for either 1 hr (EDC, GP, MG, PA and GA), 2 hrs (TG) or 6 hrs (DT and LT). Crosslinking was quantified by determining the amount of hydroxyproline (HYP) released from the tissue by collagenase digestion.
Homogenized annulus tissue was treated with sub-saturating concentrations of various crosslinkers at varying pH and incubated for either 1 hr (EDC, GP, MG, PA and GA), 2 hrs (TG) or 6 hrs (LT). Crosslinking was quantified by determining the amount of hydroxyproline (HYP) released from the tissue by collagenase digestion.
In order to determine the effective concentration range for various crosslinking reagents we incubated samples of annulus tissue in increasing concentrations of either genipin (GP), methylglyoxal (MG), proanthrocyanidin (PA), L-threose (LT), D-threose (DT), dimethylaminopropyl) carbodiimide hydrochloride (EDC) or transglutaminase (TG). Crosslinking efficiency was measured indirectly by monitoring the release of peptides containing hydroxyproline upon subsequent digestion with collagenase. Glutaraldehyde (GA), a commonly used, but highly toxic protein crosslinker was used as a positive control.
To test this hypothesis, the inventors subjected calf annulus fibrosus tissue to crosslinking with sub-saturating levels of our reagents at varying pH. In order to maintain optimal buffering capacity at each pH, different buffers were selected for each point.

physchem [2] = type: physicochemical; conditions: for half-life: buffer
From the text: In the case of the crosslinking agent genipin (GP), using a quantitative HPLC assay, the inventors have shown that the agent is unstable in aqueous solution. The rate of degradation can be very rapid and is dependent on pH. […] In all cases this instability is not suitable for long term storage of a genipin-containing crosslinking agent at ambient temperature. […] The inventors have also shown that GP is stable as a powder for at least 1 year. These observations have consequences for the manufacture and/or final form of a crosslinking reagent containing GP, i.e., the GP would have to be stored either in powdered form or in a suitable non-aqueous, water-miscible solvent. The solvent could be, but is not limited to, ethanol, methanol, propanol, acetonitrile or dimethyl sulfoxide.

physchem [3] = type: physicochemical
From the text: In the case of crosslinking agents that are not very water-soluble, additional reagents may be required to maintain the solubility of the crosslinking agent. Such reagents should be miscible with water and function to increase the solubility of the crosslinking agent by reducing the hydrophilicity of the aqueous medium. […] At the upper limit, GP was soluble in 100% DMSO to a level of 2.6M. […] Thus manipulation of the buffer concentration and the addition of co-solvents allows for the manipulation of the crosslinking reagent concentration to the desired level. The values were all determined at ambient room temperature. Crosslinker solubility could also be increased by increasing the temperature of the solvent.

[4] = tested on: calf intervertebral discs; test: Hydration change / fluid flux of disc regions (soaking, creep loading, resoaking); parameters: species or system calf (4 month-old bovine); conditions: for % increase by Genipin, NP: flux into and out of the central nucleus region vs control flux
From the text: By measuring the change in hydration of different regions of the intervertebral disc (nucleus pulposus, inner annulus, and outer annulus fibrosus) prior to and after periods of soaking, sustained compressive loading, and resoaking, the fluid flux to and from different regions can be determined. By comparing these measurements between control discs and discs treated with crosslinking reagents known to have minimal cytotoxicity, we see the effect of crosslinking treatment on fluid flux and permeability. A total of 24 calf (4 month-old bovine) intervertebral discs were used for this study. Water content of three different areas of the […] tissue were tested-the nucleus pulposus, inner annulus fibrosus and outer annulus fibrosus. Hydration change was determined by weighing the specimen using a micro-balance (sensitivity: 0.1 mg). Water content (M) was calculated as: M=(Wet Weight-Dry Weight)/Wet Weight=g H2O/g Wet Weight The drying procedure consisted of putting the specimens in the oven with a controlled temperature of 90° C. for 24 hrs. The specimens were separated into four tests: • 1. Group A: Three specimens were in this group. It served as a control group. The specimens were soaked in PBS (phosphate buffered saline) for 1 day and then the hydration analysis was performed. • 2. Group B1: Four specimens were in this group. In addition to the one day PBS soaking, the specimens soaked in PBS for 2 more days as a control and then the hydration analysis was performed. • Group B2: Five specimens were in this group. In addition to the one day PBS soaking, the specimens were soaked in 0.33% genipin solution for 2 days and then the hydration analysis was performed. • 3. In group C, a small daytime amount of constant compressive loading (creep) was simulated. • C1: Three specimens were in this group. The specimens were soaked in PBS for 3 days and then […] of compression was applied by a materials testing machine for 1 hour. The disc was compressed in a 5 degree of flexion posture produced by two rollers attached to the loading ram of the materials testing machine. The hydration analysis was performed immediately after the creep loading. • C2: Three specimens were in this group. The specimens were soaked in 0.33% Genipin solution for 2 days after 1 day of PBS soaking and performed identical creep loading with […] compressive load. The hydration analysis was performed immediately after the creep loading. • 4. In group D, the imbibition of water following a period of compressive loading that typically occurs in the night time as a person is in a recumbent posture was simulated. • D1: The specimens were soaked in PBS solution for 3 days and then 1 hr of creep loading at […] was applied. After the creep loading, the specimens were placed in a container in 1 PBS for one more day followed by the hydration analysis. • D2: Three specimens were included and were soaked in 0.33% genipin solution for 2 days after one day of PBS soaking. A creep load of […] for 1 hr was then applied. The specimens were put in PBS for another day followed by the hydration analysis.

[5] = combined fluid flow out (creep) and in (resoaking)

effect of phosphate on crosslinking ([1]; Tris buffer pH 8, increasing concentrations of sodium phosphate): dose-dependent enhancement | degradation in non-aqueous solvents (physchem [2]): no GP degradation was detected | stability as a powder (physchem [2]): at least 1 year | half-life (physchem [2]; pH 4): 214 h | half-life (physchem [2]; pH 5): 219 h | half-life (physchem [2]; pH 6): 135 h | half-life (physchem [2]; pH 7): 60 h | half-life (physchem [2]; pH 8): 18 h | half-life (physchem [2]; pH 9): 2.8 h | solubility (physchem [3]; aqueous buffer): 60.4 mM (≈ 13.7 mg/mL) | solubility (physchem [3]; aqueous with cosolvent or surfactant or cyclodextrin): 74.6 mM (≈ 16.9 mg/mL) | solubility (physchem [3]; organic solvent or mixture): 2600 mM (≈ 588 mg/mL) | solubility (physchem [3]; pH 9, aqueous buffer): 39.6 mM (≈ 8.96 mg/mL) | solubility (physchem [3]; pH 9, aqueous with cosolvent or surfactant or cyclodextrin): 63.3 mM (≈ 14.3 mg/mL) | Genipin Flux, Inner AF [4, 5]: 0.1008 | Genipin Flux, NP [4, 5]: 0.04983 | Genipin Flux, Outer AF [4, 5]: 0.05294
Structure (SMILES): COC(=O)C1=CO[C@@H](O)[C@@H]2C(CO)=CC[C@H]12 [Genipin, genipin]
effect of buffer (EPPS vs Tris) on crosslinking ([1]; 100 mM EPPS or 100 mM Tris, GP at pH 9): more effective in EPPS buffer than in Tris | pH ([1]; optimized pH for crosslinking, Table 5): 8-9 | [Saturating] ([1]; saturating crosslinker concentration, Table 5): 5 to 10 mM | pH dependence of crosslinking ([1]; sub-saturating crosslinker, pH 4-9 with a different buffer at each pH (FIG. 2, FIG. 3)): function better in disc tissue at the higher pH levels | % increase by Genipin, NP [4]: 63.7% | % increase by Genipin, NP ([4]; listed as genipin): 64% | % increase by Genipin, Inner AF ([4]; flux vs control flux): 17.3% | % increase by Genipin, Outer AF ([4]; flux vs control flux): 5.7%

— US8283322B2, “Formulations for nonsurgical exogenous crosslink therapy” (Orthopeutics, LP, priority 2008, dated 2012)
